In ChEMBL document CHEMBL1201862, “PubChem BioAssay data set” (2004):
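Grown in 96-well plates, cells were treated for 48 hours with each compound at five concentrations. Insufficient inhibition: endpoint recorded as highest concentration tested. Here, GI50 denotes the concentration required for 50% inhibition of growth.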 The source made the active and inactive calls. No stated cut-off is given here; in the data, active = GI50 up to about 1.1 µM and inactive = higher.

Legend:
Test in all cases: NCI-60 cell line screen, 48 h
HL-60 = tested on: HL-60
ACHN = tested on: ACHN
SW-620 = tested on: SW-620
NCI-H23 = tested on: NCI-H23
U-251 = tested on: U-251
TK-10 = tested on: TK-10
HOP-62 = tested on: HOP-62
K562 = tested on: K562
DMS-114 = tested on: DMS-114
UACC-62 = tested on: UACC-62
786-0 = tested on: 786-0
SK-OV-3 = tested on: SK-OV-3
DMS-273 = tested on: DMS-273
SNB-19 = tested on: SNB-19
HOP-18 = tested on: HOP-18
EKVX = tested on: EKVX
SK-MEL-2 = tested on: SK-MEL-2
KM-20L2 = tested on: KM-20L2
COLO 205 = tested on: COLO 205
SK-MEL-5 = tested on: SK-MEL-5
HT-29 = tested on: HT-29
A549 = tested on: A549
KM12 = tested on: KM12
NCI-H522 = tested on: NCI-H522
UO-31 = tested on: UO-31
UACC-257 = tested on: UACC-257
SN12C = tested on: SN12C
DLD-1 = tested on: DLD-1
SNB-78 = tested on: SNB-78
LOX IMVI = tested on: LOX IMVI
RXF 631 = tested on: RXF 631
SK-MEL-28 = tested on: SK-MEL-28
SF-295 = tested on: SF-295
SNB-75 = tested on: SNB-75
NCI-H226 = tested on: NCI-H226
A498 = tested on: A498
RPMI-8226 = tested on: RPMI-8226
NCI-H460 = tested on: NCI-H460
Malme-3M = tested on: Malme-3M
HOP-92 = tested on: HOP-92
OVCAR-8 = tested on: OVCAR-8
IGROV-1 = tested on: IGROV-1
RXF 393 = tested on: RXF 393
SF-539 = tested on: SF-539
CAKI-1 = tested on: CAKI-1
MOLT-4 = tested on: MOLT-4
CCRF-CEM = tested on: CCRF-CEM
HCC 2998 = tested on: HCC 2998
SF-268 = tested on: SF-268
OVCAR-3 = tested on: OVCAR-3
HCT-15 = tested on: HCT-15
OVCAR-5 = tested on: OVCAR-5
XF498 = tested on: XF498
LXFL 529 = tested on: LXFL 529
SR = tested on: SR
HCT-116 = tested on: HCT-116
M14 = tested on: M14

For `Clc1ccc(SCCSCCCCCCCCCCSCCSc2ccc(Cl)cc2)cc1`, the GI50 (HL-60) was > 100 µM (inactive), the GI50 (ACHN) was > 100 µM (inactive) and the GI50 (SW-620) was > 100 µM (inactive). For the same compound, the GI50 (NCI-H23) was > 100 µM (inactive), the GI50 (U-251) was > 100 µM (inactive) and the GI50 (TK-10) was > 100 µM (inactive). For the same compound, the GI50 (HOP-62) was > 100 µM (inactive), the GI50 (K562) was > 100 µM (inactive) and the GI50 (DMS-114) was > 100 µM (inactive). The GI50 (UACC-62) was > 100 µM (inactive), the GI50 (786-0) was > 100 µM (inactive) and the GI50 (SK-OV-3) was > 100 µM (inactive). The GI50 (DMS-273) was > 100 µM (inactive), the GI50 (SNB-19) was > 100 µM (inactive) and the GI50 (HOP-18) was > 100 µM (inactive). For the same compound, the GI50 (EKVX) was > 100 µM (inactive), the GI50 (SK-MEL-2) was > 100 µM (inactive) and the GI50 (KM-20L2) was > 100 µM (inactive). The GI50 (COLO 205) was > 100 µM (inactive), the GI50 (SK-MEL-5) was > 100 µM (inactive) and the GI50 (HT-29) was > 100 µM (inactive). The GI50 (A549) was > 100 µM (inactive), the GI50 (KM12) was > 100 µM (inactive) and the GI50 (NCI-H522) was > 100 µM (inactive). The GI50 (UO-31) was > 100 µM (inactive), the GI50 (UACC-257) was > 100 µM (inactive) and the GI50 (SN12C) was > 100 µM (inactive). The GI50 (DLD-1) was > 100 µM (inactive), the GI50 (SNB-78) was > 100 µM (inactive) and the GI50 (LOX IMVI) was > 100 µM (inactive). For the same compound, the GI50 (RXF 631) was > 100 µM (inactive), the GI50 (SK-MEL-28) was > 100 µM (inactive) and the GI50 (SF-295) was > 100 µM (inactive). The GI50 (SNB-75) was > 100 µM (inactive), the GI50 (NCI-H226) was > 100 µM (inactive) and the GI50 (A498) was > 100 µM (inactive). The GI50 (RPMI-8226) was > 100 µM (inactive), the GI50 (NCI-H460) was > 100 µM (inactive) and the GI50 (Malme-3M) was > 100 µM (inactive). For the same compound, the GI50 (HOP-92) was > 100 µM (inactive), the GI50 (OVCAR-8) was > 100 µM (inactive) and the GI50 (IGROV-1) was > 100 µM (inactive). For the same compound, the GI50 (RXF 393) was > 100 µM (inactive), the GI50 (SF-539) was > 100 µM (inactive) and the GI50 (CAKI-1) was > 100 µM (inactive). The GI50 (MOLT-4) was > 100 µM (inactive), the GI50 (CCRF-CEM) was > 100 µM (inactive) and the GI50 (HCC 2998) was > 100 µM (inactive). For the same compound, the GI50 (SF-268) was > 100 µM (inactive), the GI50 (OVCAR-3) was > 100 µM (inactive) and the GI50 (HCT-15) was > 100 µM. For the same compound, the GI50 (OVCAR-5) was > 100 µM (inactive).

With `C/N=C(\SC)N(C)c1nc(=[N+](C)C)ss1.[O-][Cl+3]([O-])([O-])[O-]` the GI50 (HL-60) was 7.38 µM (inactive), the GI50 (ACHN) was > 100 µM (inactive) and the GI50 (SW-620) was 31.6 µM (inactive). The GI50 (NCI-H23) was > 100 µM (inactive), the GI50 (U-251) was > 100 µM (inactive) and the GI50 (TK-10) was > 100 µM (inactive). The GI50 (HOP-62) was > 100 µM (inactive), the GI50 (XF498) was 32.6 µM (inactive) and the GI50 (K562) was 10.7 µM (inactive). For the same compound, the GI50 (UACC-62) was 4.9 µM (inactive), the GI50 (786-0) was > 100 µM (inactive) and the GI50 (SK-OV-3) was > 100 µM (inactive). The GI50 (DMS-273) was > 100 µM (inactive), the GI50 (SNB-19) was > 100 µM (inactive) and the GI50 (EKVX) was 45.3 µM (inactive). For the same compound, the GI50 (SK-MEL-2) was > 100 µM (inactive), the GI50 (SK-MEL-5) was 7.21 µM (inactive) and the GI50 (HT-29) was 4.22 µM (inactive). For the same compound, the GI50 (A549) was > 100 µM (inactive), the GI50 (KM12) was > 100 µM (inactive) and the GI50 (NCI-H522) was 13.2 µM (inactive). The GI50 (UO-31) was 42.2 µM (inactive), the GI50 (UACC-257) was > 100 µM (inactive) and the GI50 (LXFL 529) was 58.6 µM (inactive). The GI50 (SN12C) was > 100 µM (inactive), the GI50 (SNB-78) was > 100 µM (inactive) and the GI50 (LOX IMVI) was > 100 µM (inactive). The GI50 (RXF 631) was 2.28 µM (inactive), the GI50 (SR) was 56 µM (inactive) and the GI50 (SK-MEL-28) was > 100 µM (inactive). The GI50 (SF-295) was > 100 µM (inactive), the GI50 (SNB-75) was 3.81 µM (inactive) and the GI50 (NCI-H226) was > 100 µM (inactive). The GI50 (A498) was 4.61 µM (inactive), the GI50 (HOP-92) was > 100 µM (inactive) and the GI50 (OVCAR-8) was > 100 µM (inactive). For the same compound, the GI50 (IGROV-1) was > 100 µM (inactive), the GI50 (HCT-116) was > 100 µM (inactive) and the GI50 (RXF 393) was > 100 µM (inactive). The GI50 (M14) was > 100 µM (inactive), the GI50 (CAKI-1) was 52 µM (inactive) and the GI50 (MOLT-4) was 9.53 µM (inactive). For the same compound, the GI50 (CCRF-CEM) was 4.17 µM (inactive), the GI50 (HCC 2998) was > 100 µM (inactive) and the GI50 (SF-268) was > 100 µM (inactive). The GI50 (HCT-15) was > 100 µM and the GI50 (OVCAR-5) was > 100 µM (inactive).
